Experimental data taken from patent US9624241B2 (Incyte Corporation, priority 2013, dated 2017).
Like-named read-outs stand apart in the source and are kept apart here.

Assays:
BET proteins = assay: BET protein inhibition, assay not specified; conditions: comparison of chiral HPLC peaks
KMS.12.BM cells = assay: KMS.12.BM Cell Viability Assay (Example B1); assay type: cell-based, human; conditions: 3 days, Cell Titer-GLO, read-out: KMS cellular IC50
Protocol: KMS.12.BM cell line (human myeloma) was purchased from JCRB (Osaka, Japan) and maintained in RPMI with 10% FBS culture medium. To measure the cytotoxic activity of the compounds through ATP quantitation, the KMS.12.BM cells are plated in the RPMI culture medium at 5000 cells/well/per 100 μL into a 96-well polystyrene clear black tissue culture plate (Greiner-bio-one through VWR, NJ), in the presence or absence of a concentration range of test compounds. After 3 days, […] Cell Titer-GLO Luminescent (Promega, Madison, Wis.) cell culture agent is added to each well for 10 min. at room temperature to stabilize the luminescent signal. This determines the number of viable cells in culture based on quantitation of the ATP present, which signals the presence of metabolically active cells.

BRD4-BD2 = BRD4-BD2 (Homo sapiens (Human), UniProt O60885); assay: BRD4 AlphaScreen Assay (Example A1), BRD4-BD2; assay type: binding; conditions: Assay A1, 20 nM BRD4-BD2, 50 nM H4Ac4 peptide; read-out: BRD4 BD-2 enzyme IC50
Protocol: (§1) BRD4-BD1 and BRD4-BD2 assays were conducted in white 384-well polystyrene plate in a final volume of 20 μL for BD1 and 40 μL for BD2. Inhibitors were first serially diluted in DMSO and added to the plate wells before the addition of other reaction components. […] After plate sealing, the plate was incubated in the dark at room temperature for 75 min. before reading on a PHERAstar FS plate reader (BMG Labtech). IC50 determination was performed by fitting the curve of percent control activity versus the log of the inhibitor concentration using the GraphPad Prism 5.0 software.

BRD4-BD1 = BRD4-BD1 (Homo sapiens (Human), UniProt O60885); assay: BRD4 AlphaScreen Assay (Example A1), BRD4-BD1; assay type: binding; conditions: Assay A1, 3.8 nM BRD4-BD1, 50 nM H4Ac4 peptide; read-out: BRD4 BD-1 enzyme IC50
Protocol: as §1

Row | SMILES | relative activity of separated enantiomers (BET proteins) | IC50 (KMS.12.BM cells) [nM] | IC50 (KMS.12.BM cells; Homo sapiens, KMS-12-BM, 72 h) [nM] | IC50 (BRD4-BD2) [nM] | IC50 (BRD4-BD1) [nM]
1 | Cc1noc(C)c1-c1ccc2[nH]c(=O)n3c2c1OCC3c1ccccc1 (single isomer, unassigned) [Example 1A, 7-(3,5-Dimethylisoxazol-4-yl)-4-phenyl-4,5-dihydroimidazo[1,5,4-de][1,4]benzoxazin-2(1H)-one] | more active |  |  |  | 
2 | Cc1noc(C)c1-c1ccc2[nH]c(=O)n3c2c1OCC3c1ccccc1 (single isomer, unassigned) [Example 1B, 7-(3,5-Dimethylisoxazol-4-yl)-4-phenyl-4,5-dihydroimidazo[1,5,4-de][1,4]benzoxazin-2(1H)-one] | less active |  |  |  | 
3 | Cc1noc(C)c1-c1ccc2nc(N3CC[C@@H](O)C3)n3c2c1OCC3c1cccnc1 (single isomer, unassigned) [Example 159C] |  | 1000 to 10000 |  |  | 
4 | Cc1noc(C)c1-c1ccc2[nH]c(=O)n3c2c1OCC3c1ccccn1 (single isomer, unassigned) [Example 15, 7-(3,5-Dimethylisoxazol-4-yl)-4-pyridin-2-yl-4,5-dihydroimidazo[1,5,4-de][1,4]benzoxazin-2(1H)-one] |  |  | < 1000 | < 100 | < 100
5 | Cc1noc(C)c1-c1ccc2[nH]c(=O)n3c2c1OCC3c1ccccn1 (racemic) [Example 13, 7-(3,5-Dimethylisoxazol-4-yl)-4-pyridin-2-yl-4,5-dihydroimidazo[1,5,4-de][1,4]benzoxazin-2(1H)-one] |  |  | < 1000 | < 100 | < 100
6 | CCNC(=O)COc1ccccc1C1COc2c(-c3c(C)noc3C)ccc3[nH]c(=O)n1c23 (stereo not drawn) [Example 22, 2-{2-[7-(3,5-Dimethylisoxazol-4-yl)-2-oxo-1,2,4,5-tetrahydroimidazo[1,5,4-de][1,4]benzoxazin-4-yl]phenoxy}-N-ethylacetamide] |  |  |  | < 100 | < 100
7 | Cc1noc(C)c1-c1ccc2[nH]c(=O)n3c2c1OCC3c1ccccc1OCC(=O)N(C)C (stereo not drawn) [Example 51, 2-{2-[7-(3,5-Dimethylisoxazol-4-yl)-2-oxo-1,2,4,5-tetrahydroimidazo[1,5,4-de][1,4]benzoxazin-4-yl]phenoxy}-N,N-dimethylacetamide] |  |  |  | < 100 | < 100
8 | Cc1noc(C)c1-c1ccc2[nH]c(=O)n3c2c1OCC3c1ccccn1 (single isomer, unassigned) [Example 14, 7-(3,5-Dimethylisoxazol-4-yl)-4-pyridin-2-yl-4,5-dihydroimidazo[1,5,4-de][1,4]benzoxazin-2(1H)-one] |  |  |  | 1000 to 10000 | 1000 to 10000
9 | Cc1noc(C)c1-c1ccc2nc(NCC(C)O)n3c2c1OCC3c1ccccc1 (stereo not drawn) [Example 32, 1-{[7-(3,5-Dimethylisoxazol-4-yl)-4-phenyl-4,5-dihydroimidazo[1,5,4-de][1,4]benzoxazin-2-yl]amino}propan-2-ol] |  |  |  | < 100 | < 100
10 | COc1ccccc1C1COc2c(-c3c(C)noc3C)ccc3[nH]c(=O)n1c23 (stereo not drawn) [Example 7, 7-(3,5-Dimethylisoxazol-4-yl)-4-(2-methoxyphenyl)-4,5-dihydroimidazo[1,5,4-de][1,4]benzoxazin-2(1H)-one] |  |  |  | < 100 | < 100
11 | Cc1noc(C)c1-c1ccc2nc(N(C)CCO)n3c2c1OCC3c1ccccc1 (stereo not drawn) [Example 34, 2-[[7-(3,5-Dimethylisoxazol-4-yl)-4-phenyl-4,5-dihydroimidazo[1,5,4-de][1,4]benzoxazin-2-yl](methyl)amino]ethanol] |  |  |  | < 100 | < 100
